Experiments:
[1] = molecular target: Voltage-dependent L-type calcium channel subunit alpha-1S (Homo sapiens) (UniProt Q13698); assay: Selectivity interaction (Eurofins CEREP Diversity Profile (receptors and ion channels)) EUB0000279b CACNA1S; conditions: at 10 µM
[2] = molecular target: Mast/stem cell growth factor receptor Kit (Homo sapiens, UniProt P10721); assay: Selectivity interaction (Kinase panel (Eurofins)) EUB0001564a KIT; conditions: at 1 µM
[3] = molecular target: Serine/threonine-protein kinase SIK1 (Homo sapiens) (UniProt P57059); conditions: at 10 µM
Serine/threonine-protein kinase SIK1 (Homo sapiens), sequence (P57059 whole entry): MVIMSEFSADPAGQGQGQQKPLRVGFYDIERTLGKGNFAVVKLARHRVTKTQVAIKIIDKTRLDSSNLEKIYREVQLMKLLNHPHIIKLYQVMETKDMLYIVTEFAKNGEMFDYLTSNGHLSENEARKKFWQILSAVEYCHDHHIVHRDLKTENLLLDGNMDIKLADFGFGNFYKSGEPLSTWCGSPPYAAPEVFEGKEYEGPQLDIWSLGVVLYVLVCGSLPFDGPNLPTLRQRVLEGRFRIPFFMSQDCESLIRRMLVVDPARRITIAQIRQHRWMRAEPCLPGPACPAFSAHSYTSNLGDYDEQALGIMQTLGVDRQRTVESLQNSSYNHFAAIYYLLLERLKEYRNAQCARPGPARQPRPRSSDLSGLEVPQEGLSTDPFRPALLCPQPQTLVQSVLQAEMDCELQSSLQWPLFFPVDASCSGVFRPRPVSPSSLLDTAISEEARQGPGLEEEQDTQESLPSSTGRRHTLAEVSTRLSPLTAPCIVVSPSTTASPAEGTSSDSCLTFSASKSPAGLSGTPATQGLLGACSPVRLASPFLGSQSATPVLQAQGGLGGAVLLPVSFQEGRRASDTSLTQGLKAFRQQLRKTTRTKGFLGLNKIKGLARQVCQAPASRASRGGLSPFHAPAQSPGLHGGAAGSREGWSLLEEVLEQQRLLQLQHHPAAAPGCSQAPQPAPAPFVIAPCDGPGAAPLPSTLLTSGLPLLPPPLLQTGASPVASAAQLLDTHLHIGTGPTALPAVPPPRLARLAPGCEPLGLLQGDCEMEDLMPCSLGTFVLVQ

[4] = molecular target: T1, Tyrosine-protein kinase Lck (Homo sapiens, UniProt P06239); conditions: at 3 µM
T1 sequence (P06239 2-509 limits assumed): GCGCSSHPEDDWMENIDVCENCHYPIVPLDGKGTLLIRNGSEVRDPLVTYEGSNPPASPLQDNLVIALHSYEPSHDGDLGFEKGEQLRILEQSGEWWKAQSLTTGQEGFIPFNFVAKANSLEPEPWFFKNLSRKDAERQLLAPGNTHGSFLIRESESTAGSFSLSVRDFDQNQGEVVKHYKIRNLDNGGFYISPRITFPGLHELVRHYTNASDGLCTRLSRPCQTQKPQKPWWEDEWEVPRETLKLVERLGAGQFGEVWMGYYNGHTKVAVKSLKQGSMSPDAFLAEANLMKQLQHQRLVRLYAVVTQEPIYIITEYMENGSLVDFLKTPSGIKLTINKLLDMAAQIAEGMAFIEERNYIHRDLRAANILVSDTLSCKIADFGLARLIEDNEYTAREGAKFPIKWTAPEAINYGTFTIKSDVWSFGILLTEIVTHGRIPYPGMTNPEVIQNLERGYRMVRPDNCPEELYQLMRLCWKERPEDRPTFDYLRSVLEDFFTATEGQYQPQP

[5] = molecular target: T2, Serine/threonine-protein kinase Nek11 (Homo sapiens) (UniProt Q8NG66); assay: Selectivity interaction (KinomeScan (DiscoverX)) EUB0000595a NEK11; conditions: at 10 µM
T2 sequence (whole entry): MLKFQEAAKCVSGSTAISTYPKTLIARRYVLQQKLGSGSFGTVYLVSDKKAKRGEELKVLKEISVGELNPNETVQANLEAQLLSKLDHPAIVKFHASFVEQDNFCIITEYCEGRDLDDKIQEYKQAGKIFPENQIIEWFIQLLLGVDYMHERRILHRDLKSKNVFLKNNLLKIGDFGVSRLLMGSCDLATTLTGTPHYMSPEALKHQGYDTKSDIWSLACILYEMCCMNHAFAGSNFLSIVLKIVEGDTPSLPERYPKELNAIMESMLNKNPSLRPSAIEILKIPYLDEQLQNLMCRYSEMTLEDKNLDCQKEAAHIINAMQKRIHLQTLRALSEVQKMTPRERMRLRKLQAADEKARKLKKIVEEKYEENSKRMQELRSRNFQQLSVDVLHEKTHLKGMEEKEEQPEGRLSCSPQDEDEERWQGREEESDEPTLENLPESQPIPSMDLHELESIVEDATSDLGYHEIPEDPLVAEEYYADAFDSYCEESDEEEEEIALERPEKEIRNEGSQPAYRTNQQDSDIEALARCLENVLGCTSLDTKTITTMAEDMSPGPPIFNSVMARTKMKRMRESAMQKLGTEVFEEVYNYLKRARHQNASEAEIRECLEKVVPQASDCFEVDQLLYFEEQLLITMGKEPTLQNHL

[6] = molecular target: T1, Tyrosine-protein kinase Lck; assay: Selectivity interaction (Ambit KINOMEscan and KiNATiv profiling in Jurkat cells) EUB0000090b LCK; format: cell-based; conditions: at 1 µM
[7] = Selectivity interaction (KinomeScan (DiscoverX)) EUB0000045b PKNB
[8] = molecular target: T3, Inhibitor of nuclear factor kappa-B kinase subunit alpha (Homo sapiens) (UniProt O15111); assay: Selectivity interaction (Kinase panel (KiNativ target engagement assay in Jurkat cells)) EUB0001635a CHUK; format: cell-based; conditions: Selectivity number of off-targets 0.0, Selectivity number of targets 233.0, Source Knowledge https://www.sciencedirect.com/science/article/pii/S2451945619300674?via%3Dihub, at 1 µM
T3 sequence (whole entry): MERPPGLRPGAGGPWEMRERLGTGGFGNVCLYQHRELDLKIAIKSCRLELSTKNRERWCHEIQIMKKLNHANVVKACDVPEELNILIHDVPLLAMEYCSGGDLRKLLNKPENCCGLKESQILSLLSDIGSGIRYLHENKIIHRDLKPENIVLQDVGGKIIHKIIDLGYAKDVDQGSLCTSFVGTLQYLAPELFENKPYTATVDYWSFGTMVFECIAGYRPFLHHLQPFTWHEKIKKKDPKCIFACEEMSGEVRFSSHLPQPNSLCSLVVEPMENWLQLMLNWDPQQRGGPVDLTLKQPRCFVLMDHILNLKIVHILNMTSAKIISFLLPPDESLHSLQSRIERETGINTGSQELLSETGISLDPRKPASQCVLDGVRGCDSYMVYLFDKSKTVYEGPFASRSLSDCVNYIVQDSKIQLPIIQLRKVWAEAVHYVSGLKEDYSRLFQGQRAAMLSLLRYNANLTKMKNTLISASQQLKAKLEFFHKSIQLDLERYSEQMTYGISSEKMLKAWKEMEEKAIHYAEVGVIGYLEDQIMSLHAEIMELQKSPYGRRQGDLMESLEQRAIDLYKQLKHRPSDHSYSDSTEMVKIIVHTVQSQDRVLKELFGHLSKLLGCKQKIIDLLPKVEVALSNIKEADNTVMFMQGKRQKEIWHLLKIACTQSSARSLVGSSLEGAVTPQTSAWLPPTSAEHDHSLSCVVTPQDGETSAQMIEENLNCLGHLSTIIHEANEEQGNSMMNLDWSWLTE

[9] = molecular target: T4, Phosphatidylinositol 4,5-bisphosphate 3-kinase catalytic subunit delta isoform (Homo sapiens) (UniProt O00329); assay: Selectivity interaction (Kinase panel (KiNativ target engagement assay in Jurkat cells)) EUB0001635a PIK3CD; format: cell-based; conditions: Selectivity number of off-targets 0.0, Selectivity number of targets 233.0, Source Knowledge https://www.sciencedirect.com/science/article/pii/S2451945619300674?via%3Dihub, at 1 µM
T4 sequence (whole entry): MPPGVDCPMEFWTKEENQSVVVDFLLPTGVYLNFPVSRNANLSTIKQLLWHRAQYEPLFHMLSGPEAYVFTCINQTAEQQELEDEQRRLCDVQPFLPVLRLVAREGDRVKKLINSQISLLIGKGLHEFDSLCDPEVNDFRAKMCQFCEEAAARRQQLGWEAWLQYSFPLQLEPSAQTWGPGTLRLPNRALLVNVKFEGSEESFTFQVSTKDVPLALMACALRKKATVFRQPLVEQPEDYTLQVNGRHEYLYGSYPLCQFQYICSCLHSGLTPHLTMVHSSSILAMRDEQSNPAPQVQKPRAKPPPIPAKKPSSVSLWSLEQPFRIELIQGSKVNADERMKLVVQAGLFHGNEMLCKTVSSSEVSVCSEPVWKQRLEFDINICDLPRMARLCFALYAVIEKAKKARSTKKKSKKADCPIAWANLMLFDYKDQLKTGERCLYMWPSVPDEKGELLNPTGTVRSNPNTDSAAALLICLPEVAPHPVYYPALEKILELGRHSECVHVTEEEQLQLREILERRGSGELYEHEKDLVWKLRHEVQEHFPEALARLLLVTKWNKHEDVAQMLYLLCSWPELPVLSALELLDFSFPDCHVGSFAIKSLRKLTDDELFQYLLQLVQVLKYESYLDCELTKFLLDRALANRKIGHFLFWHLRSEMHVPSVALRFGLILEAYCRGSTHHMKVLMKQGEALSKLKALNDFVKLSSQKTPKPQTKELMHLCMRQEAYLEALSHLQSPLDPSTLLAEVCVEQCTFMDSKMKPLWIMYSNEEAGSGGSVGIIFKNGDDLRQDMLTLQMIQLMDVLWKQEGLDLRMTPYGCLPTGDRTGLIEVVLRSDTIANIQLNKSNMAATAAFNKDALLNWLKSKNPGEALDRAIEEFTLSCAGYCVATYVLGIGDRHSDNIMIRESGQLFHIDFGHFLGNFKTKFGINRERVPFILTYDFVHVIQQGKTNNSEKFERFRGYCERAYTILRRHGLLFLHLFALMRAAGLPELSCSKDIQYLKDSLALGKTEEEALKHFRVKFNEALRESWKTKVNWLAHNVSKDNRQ

Voltage-dependent L-type calcium channel subunit alpha-1S (Homo sapiens), sequence (Q13698 whole entry): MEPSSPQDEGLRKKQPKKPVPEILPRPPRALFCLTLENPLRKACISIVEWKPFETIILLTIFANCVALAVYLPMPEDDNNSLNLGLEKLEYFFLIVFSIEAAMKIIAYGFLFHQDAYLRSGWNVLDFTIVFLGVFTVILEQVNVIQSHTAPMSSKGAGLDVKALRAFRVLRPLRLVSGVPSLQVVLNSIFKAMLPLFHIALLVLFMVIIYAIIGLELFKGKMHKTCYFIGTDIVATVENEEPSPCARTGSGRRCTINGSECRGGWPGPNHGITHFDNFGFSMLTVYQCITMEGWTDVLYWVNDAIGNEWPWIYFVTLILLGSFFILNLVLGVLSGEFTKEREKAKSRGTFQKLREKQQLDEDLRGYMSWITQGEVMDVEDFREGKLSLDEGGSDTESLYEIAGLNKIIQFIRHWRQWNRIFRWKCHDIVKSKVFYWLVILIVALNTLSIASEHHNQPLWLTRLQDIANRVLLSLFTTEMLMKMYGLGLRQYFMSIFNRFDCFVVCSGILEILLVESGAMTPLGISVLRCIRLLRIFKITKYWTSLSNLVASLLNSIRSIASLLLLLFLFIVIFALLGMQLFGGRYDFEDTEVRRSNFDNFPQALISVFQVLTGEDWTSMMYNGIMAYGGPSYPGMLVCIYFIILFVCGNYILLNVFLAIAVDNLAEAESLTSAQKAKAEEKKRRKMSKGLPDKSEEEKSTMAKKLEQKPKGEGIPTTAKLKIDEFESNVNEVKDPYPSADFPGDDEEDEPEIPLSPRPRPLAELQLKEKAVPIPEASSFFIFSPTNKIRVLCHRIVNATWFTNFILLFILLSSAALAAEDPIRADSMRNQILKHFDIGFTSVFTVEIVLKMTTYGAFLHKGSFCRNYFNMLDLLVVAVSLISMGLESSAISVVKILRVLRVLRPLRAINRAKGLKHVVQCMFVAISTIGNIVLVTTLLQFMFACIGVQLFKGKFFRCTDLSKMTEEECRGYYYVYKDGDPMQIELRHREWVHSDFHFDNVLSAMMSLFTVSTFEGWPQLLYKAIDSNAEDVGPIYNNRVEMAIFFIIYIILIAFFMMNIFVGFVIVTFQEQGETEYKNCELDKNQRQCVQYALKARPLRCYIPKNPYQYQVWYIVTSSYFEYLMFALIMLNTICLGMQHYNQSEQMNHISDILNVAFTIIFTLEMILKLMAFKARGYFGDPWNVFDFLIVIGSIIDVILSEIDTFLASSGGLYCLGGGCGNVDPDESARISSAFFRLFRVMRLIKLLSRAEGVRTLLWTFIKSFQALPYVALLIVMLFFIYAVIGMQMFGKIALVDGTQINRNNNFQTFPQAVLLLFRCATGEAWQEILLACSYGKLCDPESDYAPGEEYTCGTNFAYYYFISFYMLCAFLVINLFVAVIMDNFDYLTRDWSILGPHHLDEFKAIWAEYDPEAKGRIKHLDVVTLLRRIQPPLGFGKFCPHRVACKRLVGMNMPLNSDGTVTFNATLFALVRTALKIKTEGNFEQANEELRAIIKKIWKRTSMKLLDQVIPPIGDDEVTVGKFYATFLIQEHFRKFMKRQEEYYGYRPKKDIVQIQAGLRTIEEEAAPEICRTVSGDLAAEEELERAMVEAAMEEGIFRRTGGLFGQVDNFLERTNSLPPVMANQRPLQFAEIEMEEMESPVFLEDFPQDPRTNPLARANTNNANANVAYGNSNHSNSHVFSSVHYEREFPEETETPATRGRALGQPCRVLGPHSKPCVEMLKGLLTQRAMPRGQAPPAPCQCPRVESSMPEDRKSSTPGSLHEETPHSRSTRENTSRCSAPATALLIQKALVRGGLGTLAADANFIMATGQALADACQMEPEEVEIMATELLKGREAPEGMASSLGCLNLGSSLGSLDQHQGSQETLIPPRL
Mast/stem cell growth factor receptor Kit, sequence (P10721 whole entry): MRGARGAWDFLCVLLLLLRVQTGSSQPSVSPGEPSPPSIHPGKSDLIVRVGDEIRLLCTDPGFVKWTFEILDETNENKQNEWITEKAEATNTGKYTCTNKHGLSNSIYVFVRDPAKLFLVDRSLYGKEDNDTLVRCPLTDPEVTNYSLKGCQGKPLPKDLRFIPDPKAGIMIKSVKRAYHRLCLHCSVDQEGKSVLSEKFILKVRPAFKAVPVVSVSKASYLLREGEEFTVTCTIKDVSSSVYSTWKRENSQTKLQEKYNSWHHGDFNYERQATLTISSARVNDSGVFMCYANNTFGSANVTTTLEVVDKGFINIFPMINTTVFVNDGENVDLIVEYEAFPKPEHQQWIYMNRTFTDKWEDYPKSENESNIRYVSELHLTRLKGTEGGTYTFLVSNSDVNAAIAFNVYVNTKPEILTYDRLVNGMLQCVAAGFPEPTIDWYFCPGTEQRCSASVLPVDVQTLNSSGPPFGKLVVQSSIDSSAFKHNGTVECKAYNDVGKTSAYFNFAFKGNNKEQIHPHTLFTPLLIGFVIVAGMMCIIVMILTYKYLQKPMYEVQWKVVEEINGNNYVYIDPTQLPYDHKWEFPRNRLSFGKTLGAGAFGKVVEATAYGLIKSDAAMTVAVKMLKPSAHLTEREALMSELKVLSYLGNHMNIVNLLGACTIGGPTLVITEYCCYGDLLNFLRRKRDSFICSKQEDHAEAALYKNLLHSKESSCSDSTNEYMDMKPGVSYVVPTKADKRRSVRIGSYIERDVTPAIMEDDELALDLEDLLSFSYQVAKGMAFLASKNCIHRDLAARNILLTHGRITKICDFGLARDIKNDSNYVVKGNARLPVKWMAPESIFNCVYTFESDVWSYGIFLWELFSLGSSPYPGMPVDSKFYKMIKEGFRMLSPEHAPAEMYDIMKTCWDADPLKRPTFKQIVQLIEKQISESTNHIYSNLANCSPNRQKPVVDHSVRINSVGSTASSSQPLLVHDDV

CC(=O)c1cc(-c2ccccc2OCC2CC2)c2ncccn12
% of control [1]: 89%

CC[C@@H](Nc1c(C#N)c(-c2ccc(-c3cccc(C)c3F)cc2)nc2cnccc12)C(=O)O [BAY-091]
% of inhibition [2]: 22.3%

CCN(CC)CCCCNc1ncc2cc(-c3cc(OC)cc(OC)c3)c(NC(=O)NC(C)(C)C)nc2n1
% of control [3]: 100%

CCc1cc(Nc2nccc(-c3c(-c4ccc(OC)c(C(=O)Nc5c(F)cccc5F)c4)nc4ccccn34)n2)c(OC)cc1N1CCC(N2CCN(S(C)(=O)=O)CC2)CC1
% of inhibition [4]: 47%

COCC(=O)NC/C=C/c1ccc2ncnc(Nc3ccc(Oc4ccc(C)nc4)c(C)c3)c2c1 [CP-724714]
% of control [5]: 100%

CN(C)C/C=C/C(=O)Nc1ccc(C(=O)N2CCCC(Nc3ncc(Cl)c(-c4c[nH]c5ccccc45)n3)C2)cc1 (stereo not given)
% of control [6]: 84%

C=CC(=O)Nc1cc(-n2c(=O)ccc3cnc4ccc(-c5ccc(NS(C)(=O)=O)cc5)cc4c32)ccc1C
% of control ([7]; at 1 µM): 41% | % of control ([7]; at 10 µM): 90%

C=CC(=O)Nc1ccc(C(=O)Nc2[nH]nc3c2CN(C(=O)N[C@H](CN(C)C)c2ccccc2)C3(C)C)cc1
% of engagement [8]: -7.3% | % of engagement [9]: -6.8%
